Our source for the residual activity values is ChEMBL document CHEMBL1152560, “Substituted 2-arylbenzothiazoles as kinase inhibitors: hit-to-lead optimization” (Bioorg Med Chem, 2009).

For experiment [1], the target named is Serine/threonine-protein kinase pim-1 (Homo sapiens) (UniProt P11309). The experiment in a line: Residual activity of PIM1 at 0.1 uM by microplate scintillation counting.
Experiment [2] deals with Ephrin type-A receptor 7 (Homo sapiens) (UniProt Q15375). The experiment in a line: Residual activity of EPHA7 at 1 uM by microplate scintillation counting.
Experiment [3] addresses Misshapen-like kinase 1 (Homo sapiens) (UniProt Q8N4C8). The experiment can be described thus: Residual activity of MINK1 at 1 uM by microplate scintillation counting.
For experiment [4], the target named is T1, Eukaryotic elongation factor 2 kinase (Homo sapiens) (UniProt O00418).
T1 sequence (whole entry): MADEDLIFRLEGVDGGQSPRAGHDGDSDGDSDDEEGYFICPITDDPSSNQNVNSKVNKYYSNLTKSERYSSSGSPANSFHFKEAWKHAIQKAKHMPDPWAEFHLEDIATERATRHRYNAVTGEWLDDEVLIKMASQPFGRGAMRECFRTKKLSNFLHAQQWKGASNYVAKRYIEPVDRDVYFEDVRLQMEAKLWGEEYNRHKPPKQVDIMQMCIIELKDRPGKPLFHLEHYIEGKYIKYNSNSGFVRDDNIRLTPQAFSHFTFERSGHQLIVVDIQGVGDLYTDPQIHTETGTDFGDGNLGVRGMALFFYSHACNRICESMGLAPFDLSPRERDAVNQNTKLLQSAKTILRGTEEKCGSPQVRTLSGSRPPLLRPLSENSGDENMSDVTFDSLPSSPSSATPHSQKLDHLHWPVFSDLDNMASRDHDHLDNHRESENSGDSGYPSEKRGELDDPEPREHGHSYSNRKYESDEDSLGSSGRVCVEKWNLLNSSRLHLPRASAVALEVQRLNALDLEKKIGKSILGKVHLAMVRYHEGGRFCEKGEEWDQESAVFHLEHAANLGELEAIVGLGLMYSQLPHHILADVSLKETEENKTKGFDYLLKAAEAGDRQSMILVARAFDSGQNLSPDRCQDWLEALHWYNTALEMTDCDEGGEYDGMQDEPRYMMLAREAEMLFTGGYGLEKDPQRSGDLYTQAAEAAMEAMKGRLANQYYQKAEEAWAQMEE
The experiment can be described thus: Residual activity of EEF2K at 0.1 uM by microplate scintillation counting.

In experiment [5] the target is Cyclin-dependent kinase 4/cyclin D1 (Homo sapiens) (UniProt P11802+P24385). The experiment in a line: Residual activity of CDK4/Cyclin D1 at 1 uM by microplate scintillation counting. Type of experiment: protein-complex assay.
The target of experiment [6] is Tyrosine-protein kinase FRK (Homo sapiens) (UniProt P42685). The experiment in a line: Residual activity of FRK at 0.1 uM by microplate scintillation counting.
Experiment [7] concerns the target T2, Serine/threonine-protein kinase 4 (Homo sapiens) (UniProt Q13043).
T2 sequence (whole entry): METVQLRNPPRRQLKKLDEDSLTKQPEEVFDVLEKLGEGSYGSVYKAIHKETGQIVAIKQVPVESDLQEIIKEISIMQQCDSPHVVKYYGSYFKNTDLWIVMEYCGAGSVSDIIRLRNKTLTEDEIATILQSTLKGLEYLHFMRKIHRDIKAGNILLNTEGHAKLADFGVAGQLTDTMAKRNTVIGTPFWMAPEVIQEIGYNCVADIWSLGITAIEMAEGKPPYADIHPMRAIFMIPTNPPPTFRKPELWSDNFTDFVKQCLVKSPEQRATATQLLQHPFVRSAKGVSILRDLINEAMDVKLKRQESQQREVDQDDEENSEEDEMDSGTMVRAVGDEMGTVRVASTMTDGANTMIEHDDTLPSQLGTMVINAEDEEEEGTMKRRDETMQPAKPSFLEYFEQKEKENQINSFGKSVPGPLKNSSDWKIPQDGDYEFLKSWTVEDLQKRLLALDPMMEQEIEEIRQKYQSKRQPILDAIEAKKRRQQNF
The experiment can be described thus: Residual activity of MST1 at 1 uM by microplate scintillation counting.

Experiment [8] has as its target Tyrosine-protein kinase ABL1 (Homo sapiens) (UniProt P00519). The experiment can be described thus: Residual activity of wild type ABL1 at 1 uM by microplate scintillation counting.
Experiment [9] concerns the target Ribosomal protein S6 kinase alpha-3 (Homo sapiens) (UniProt P51812). The experiment can be described thus: Residual activity of RPS6KA3 at 0.1 uM by microplate scintillation counting.
Experiment [10] has as its target Tyrosine-protein kinase Fyn (Homo sapiens) (UniProt P06241). The experiment can be described thus: Residual activity of FYN at 0.1 uM by microplate scintillation counting.
Experiment [11] deals with T3, cAMP-dependent protein kinase catalytic subunit PRKX (Homo sapiens) (UniProt P51817).
T3 sequence (whole entry): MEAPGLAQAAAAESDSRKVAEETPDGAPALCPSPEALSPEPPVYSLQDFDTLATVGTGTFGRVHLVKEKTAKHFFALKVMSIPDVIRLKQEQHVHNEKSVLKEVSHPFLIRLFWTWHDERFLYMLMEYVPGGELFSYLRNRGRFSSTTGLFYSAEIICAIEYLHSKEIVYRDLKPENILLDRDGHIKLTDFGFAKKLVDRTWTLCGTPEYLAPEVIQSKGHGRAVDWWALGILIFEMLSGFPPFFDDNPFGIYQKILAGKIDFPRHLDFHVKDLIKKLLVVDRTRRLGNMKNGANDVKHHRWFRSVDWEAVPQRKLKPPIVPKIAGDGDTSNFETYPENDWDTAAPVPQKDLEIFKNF
The experiment in a line: Residual activity of PRKX at 1 uM by microplate scintillation counting.

The target in experiment [12] is Wee1-like protein kinase (Homo sapiens) (UniProt P30291). The experiment in a line: Residual activity of WEE1 at 0.1 uM by microplate scintillation counting.
In experiment [13] the target is G protein-coupled receptor kinase 4 (Homo sapiens) (UniProt P32298). The experiment can be described thus: Residual activity of GRK4 at 10 uM by microplate scintillation counting.
Experiment [14] concerns the target Homeodomain-interacting protein kinase 3 (Homo sapiens) (UniProt Q9H422). The experiment in a line: Residual activity of HIPK3 at 1 uM by microplate scintillation counting.
For experiment [15], the target named is Ribosomal protein S6 kinase alpha-6 (Homo sapiens) (UniProt Q9UK32). The experiment can be described thus: Residual activity of RPS6KA6 at 10 uM by microplate scintillation counting.
Experiment [16] addresses Receptor-interacting serine/threonine-protein kinase 2 (Homo sapiens) (UniProt O43353). The experiment in a line: Residual activity of RIPK2 at 10 uM by microplate scintillation counting.
Experiment [17] addresses Receptor tyrosine-protein kinase erbB-2 (Homo sapiens, UniProt P04626). The experiment in a line: Residual activity of ERBB2 at 1 uM by microplate scintillation counting.
The test system of experiment [18] is Fibroblast growth factor receptor 1 (Homo sapiens), P11362 [V561M]. The experiment can be described thus: Residual activity of FGFR1 V561M mutant at 0.1 uM by microplate scintillation counting.
Experiment [19] concerns the target Homeodomain-interacting protein kinase 1 (Homo sapiens) (UniProt Q86Z02). The experiment can be described thus: Residual activity of HIPK1 at 0.1 uM by microplate scintillation counting.
For experiment [20], the target named is Vascular endothelial growth factor receptor 2 (Homo sapiens, UniProt P35968). The experiment can be described thus: Residual activity of VEGFR2 at 1 uM by microplate scintillation counting.
For experiment [21], the target named is G protein-coupled receptor kinase 5 (Homo sapiens) (UniProt P34947). The experiment can be described thus: Residual activity of GRK5 at 0.1 uM by microplate scintillation counting.
G protein-coupled receptor kinase 5 (Homo sapiens), sequence (P34947 whole entry, looked up): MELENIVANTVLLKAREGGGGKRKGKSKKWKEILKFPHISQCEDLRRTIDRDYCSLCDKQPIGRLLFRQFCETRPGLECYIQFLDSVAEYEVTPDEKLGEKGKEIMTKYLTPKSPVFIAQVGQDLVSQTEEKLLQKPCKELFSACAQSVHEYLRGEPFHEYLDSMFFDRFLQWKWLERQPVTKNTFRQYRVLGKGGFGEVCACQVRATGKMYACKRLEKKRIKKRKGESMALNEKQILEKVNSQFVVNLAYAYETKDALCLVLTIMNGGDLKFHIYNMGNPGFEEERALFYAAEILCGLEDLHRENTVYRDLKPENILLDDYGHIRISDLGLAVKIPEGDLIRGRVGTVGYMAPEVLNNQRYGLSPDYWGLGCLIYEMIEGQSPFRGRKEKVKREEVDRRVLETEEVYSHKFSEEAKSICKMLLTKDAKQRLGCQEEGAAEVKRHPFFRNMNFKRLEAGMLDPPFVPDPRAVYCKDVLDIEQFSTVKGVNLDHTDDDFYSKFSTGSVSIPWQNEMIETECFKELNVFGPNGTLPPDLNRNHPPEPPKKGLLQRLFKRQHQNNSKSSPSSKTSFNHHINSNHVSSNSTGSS

Tyrosine-protein kinase ABL1 (Homo sapiens), sequence (P00519 whole entry): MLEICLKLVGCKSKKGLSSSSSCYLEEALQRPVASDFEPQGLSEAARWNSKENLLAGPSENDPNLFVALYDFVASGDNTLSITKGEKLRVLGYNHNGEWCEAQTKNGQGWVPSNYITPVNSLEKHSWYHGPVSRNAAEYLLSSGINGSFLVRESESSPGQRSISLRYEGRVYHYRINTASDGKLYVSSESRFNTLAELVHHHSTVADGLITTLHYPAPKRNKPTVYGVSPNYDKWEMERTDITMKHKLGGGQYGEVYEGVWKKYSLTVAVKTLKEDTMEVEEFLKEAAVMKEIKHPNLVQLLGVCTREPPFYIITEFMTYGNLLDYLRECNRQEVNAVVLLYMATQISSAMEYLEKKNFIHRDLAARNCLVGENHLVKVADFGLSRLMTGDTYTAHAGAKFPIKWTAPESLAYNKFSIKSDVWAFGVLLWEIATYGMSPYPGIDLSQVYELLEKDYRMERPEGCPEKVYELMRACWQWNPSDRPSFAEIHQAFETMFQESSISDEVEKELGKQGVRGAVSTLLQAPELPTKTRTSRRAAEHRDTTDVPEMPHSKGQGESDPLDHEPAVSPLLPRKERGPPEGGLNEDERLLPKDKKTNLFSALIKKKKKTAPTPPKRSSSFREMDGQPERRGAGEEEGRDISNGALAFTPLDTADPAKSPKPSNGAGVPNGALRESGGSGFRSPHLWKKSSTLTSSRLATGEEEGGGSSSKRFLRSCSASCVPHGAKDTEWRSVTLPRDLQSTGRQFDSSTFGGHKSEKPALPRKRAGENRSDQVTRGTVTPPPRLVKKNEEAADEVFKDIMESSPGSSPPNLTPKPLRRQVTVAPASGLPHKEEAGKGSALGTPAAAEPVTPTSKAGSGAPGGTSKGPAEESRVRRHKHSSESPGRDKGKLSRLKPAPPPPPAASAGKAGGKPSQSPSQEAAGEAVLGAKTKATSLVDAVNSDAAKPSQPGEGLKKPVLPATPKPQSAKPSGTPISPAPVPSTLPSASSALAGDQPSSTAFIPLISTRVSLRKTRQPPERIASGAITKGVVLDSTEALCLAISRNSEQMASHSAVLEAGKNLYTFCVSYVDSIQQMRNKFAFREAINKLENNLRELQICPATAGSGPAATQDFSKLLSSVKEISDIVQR
Serine/threonine-protein kinase pim-1 (Homo sapiens), sequence (P11309 whole entry, looked up): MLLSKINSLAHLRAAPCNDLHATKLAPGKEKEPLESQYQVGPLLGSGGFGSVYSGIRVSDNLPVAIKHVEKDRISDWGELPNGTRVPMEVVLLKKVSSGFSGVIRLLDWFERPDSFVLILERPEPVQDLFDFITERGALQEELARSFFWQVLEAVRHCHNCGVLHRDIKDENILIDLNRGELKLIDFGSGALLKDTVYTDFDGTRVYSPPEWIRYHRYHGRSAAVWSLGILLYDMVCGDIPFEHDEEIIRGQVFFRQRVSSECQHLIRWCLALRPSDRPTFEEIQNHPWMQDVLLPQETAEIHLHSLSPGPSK
Ribosomal protein S6 kinase alpha-6 (Homo sapiens), sequence (Q9UK32 whole entry): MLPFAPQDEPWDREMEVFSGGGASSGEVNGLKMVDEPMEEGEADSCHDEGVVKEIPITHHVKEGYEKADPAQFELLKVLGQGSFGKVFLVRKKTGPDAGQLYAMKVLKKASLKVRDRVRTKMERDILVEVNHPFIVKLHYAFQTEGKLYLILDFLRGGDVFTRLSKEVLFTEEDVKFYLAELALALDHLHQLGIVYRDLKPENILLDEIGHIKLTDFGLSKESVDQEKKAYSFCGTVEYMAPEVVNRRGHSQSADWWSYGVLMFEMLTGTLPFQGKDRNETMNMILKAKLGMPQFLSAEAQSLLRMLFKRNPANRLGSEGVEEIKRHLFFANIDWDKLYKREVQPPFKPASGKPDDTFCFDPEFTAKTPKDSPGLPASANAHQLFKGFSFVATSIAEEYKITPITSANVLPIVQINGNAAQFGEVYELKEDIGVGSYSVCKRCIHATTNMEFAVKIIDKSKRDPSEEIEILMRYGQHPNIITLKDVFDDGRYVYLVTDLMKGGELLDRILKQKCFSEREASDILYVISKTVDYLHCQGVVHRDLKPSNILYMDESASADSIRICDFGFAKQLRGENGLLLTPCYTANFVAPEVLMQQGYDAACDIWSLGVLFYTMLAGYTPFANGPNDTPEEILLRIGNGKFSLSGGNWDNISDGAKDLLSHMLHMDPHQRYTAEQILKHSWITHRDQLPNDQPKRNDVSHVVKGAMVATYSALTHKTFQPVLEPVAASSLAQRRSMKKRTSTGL
Receptor tyrosine-protein kinase erbB-2, sequence (P04626 whole entry): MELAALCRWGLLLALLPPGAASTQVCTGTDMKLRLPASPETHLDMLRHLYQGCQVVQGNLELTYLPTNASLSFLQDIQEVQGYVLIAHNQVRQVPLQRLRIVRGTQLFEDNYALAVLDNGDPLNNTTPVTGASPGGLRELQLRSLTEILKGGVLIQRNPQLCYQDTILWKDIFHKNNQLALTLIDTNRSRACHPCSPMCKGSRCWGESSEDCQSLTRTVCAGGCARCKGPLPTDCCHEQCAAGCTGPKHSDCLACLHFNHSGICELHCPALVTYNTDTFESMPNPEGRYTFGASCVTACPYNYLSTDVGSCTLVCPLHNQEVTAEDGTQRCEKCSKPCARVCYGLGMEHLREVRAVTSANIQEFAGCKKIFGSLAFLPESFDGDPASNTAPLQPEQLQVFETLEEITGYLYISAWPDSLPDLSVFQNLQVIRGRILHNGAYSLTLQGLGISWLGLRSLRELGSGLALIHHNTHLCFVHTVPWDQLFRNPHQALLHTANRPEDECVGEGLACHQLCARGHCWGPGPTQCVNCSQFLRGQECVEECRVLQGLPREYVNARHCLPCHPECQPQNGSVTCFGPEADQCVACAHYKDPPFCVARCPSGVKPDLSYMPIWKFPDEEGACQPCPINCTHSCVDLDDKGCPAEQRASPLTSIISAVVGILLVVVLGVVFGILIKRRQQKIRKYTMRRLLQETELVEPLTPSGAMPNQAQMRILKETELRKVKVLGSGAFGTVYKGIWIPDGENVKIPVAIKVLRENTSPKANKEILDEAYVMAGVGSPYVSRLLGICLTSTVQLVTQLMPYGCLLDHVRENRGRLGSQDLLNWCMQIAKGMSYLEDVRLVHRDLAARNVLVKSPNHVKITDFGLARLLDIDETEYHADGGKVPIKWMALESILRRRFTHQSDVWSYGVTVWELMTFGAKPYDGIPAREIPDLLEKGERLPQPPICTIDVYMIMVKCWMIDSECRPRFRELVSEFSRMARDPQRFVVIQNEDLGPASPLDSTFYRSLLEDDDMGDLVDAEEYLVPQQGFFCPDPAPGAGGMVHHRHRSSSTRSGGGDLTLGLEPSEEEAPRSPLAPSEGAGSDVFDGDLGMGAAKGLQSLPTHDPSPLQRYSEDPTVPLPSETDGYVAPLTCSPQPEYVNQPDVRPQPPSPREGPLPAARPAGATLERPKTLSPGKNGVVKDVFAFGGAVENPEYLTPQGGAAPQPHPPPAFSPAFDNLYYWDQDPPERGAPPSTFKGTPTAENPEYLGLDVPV
Ribosomal protein S6 kinase alpha-3 (Homo sapiens), sequence (P51812 whole entry): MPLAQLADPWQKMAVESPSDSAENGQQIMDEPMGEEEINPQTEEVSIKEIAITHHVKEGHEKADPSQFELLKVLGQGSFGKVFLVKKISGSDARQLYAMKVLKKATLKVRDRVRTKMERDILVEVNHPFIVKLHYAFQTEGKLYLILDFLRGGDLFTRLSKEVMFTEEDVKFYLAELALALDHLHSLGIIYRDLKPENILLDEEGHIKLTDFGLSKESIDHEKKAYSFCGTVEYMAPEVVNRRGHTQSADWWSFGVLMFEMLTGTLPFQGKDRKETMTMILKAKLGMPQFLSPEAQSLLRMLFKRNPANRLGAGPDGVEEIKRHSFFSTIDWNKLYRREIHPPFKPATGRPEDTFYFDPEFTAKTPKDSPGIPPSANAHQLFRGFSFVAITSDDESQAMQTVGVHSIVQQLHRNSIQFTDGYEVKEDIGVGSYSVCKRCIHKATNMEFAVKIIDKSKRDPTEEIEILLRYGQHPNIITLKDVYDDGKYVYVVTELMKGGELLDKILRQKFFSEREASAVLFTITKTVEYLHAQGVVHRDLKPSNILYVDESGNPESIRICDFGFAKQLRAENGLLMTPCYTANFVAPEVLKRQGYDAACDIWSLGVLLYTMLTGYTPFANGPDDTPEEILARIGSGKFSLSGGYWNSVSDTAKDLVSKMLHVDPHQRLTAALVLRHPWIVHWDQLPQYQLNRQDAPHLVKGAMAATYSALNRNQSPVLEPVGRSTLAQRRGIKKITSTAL

For the molecule `COc1cc2c(Oc3ccc(-c4nc5ccccc5s4)cc3)ncnc2cc1OCCCN1CCCC1`, the residual activity in experiment [1] came to 95%; in [2], 114%; in [3], 86%; in experiment [4], 91%; in experiment [5], 98%; in experiment [6] it was 100%. For the same molecule, the residual activity is 81% in experiment [7]; 100% in [8]; 94% in [9]; 105% in experiment [10]; 86% in experiment [11]; 100% in experiment [12]. Besides, the residual activity in [13] came out at 159%; in experiment [14] it was 86%; in experiment [15], 50%; in [16], 4%; in experiment [17], 128%; in experiment [18], 108%. Besides, the figures for the residual activity in experiment [19], in [20] and in experiment [21] were 83%, 49% and 86%, respectively.
Take `COc1cc2c(Oc3ccc(-c4nc5ccccc5s4)cc3F)ncnc2cc1OCCCN1CCN(C)CC1`: the residual activity in experiment [1] stood at 76%; in experiment [2], 94%; in experiment [3] it was 73%; in experiment [4], 88%; in experiment [5], 94%; in experiment [6] it was 99%. Moreover, the residual activity in [7] is 101%; in experiment [8] it was 110%; in experiment [9], 95%; in [10] it was 98%; in experiment [11], 92%; in [12], 98%. The residual activity in experiment [13] was found to be 154%; in experiment [14], 81%; in experiment [15], 32%; in experiment [16], 1%; in [17] it was 99%; in [18], 93%. Besides, the residual activity in experiment [19] worked out at 85%; in [20], 53%; in experiment [21] it was 86%.
As to `COc1cc2c(Oc3ccc(-c4nc5ccccc5s4)cc3)ncnc2cc1OCCCN1CCN(C)CC1`, the residual activity in [1] turned out to be 100%; in [2], 102%; in experiment [3], 85%; in experiment [4] it was 92%; in experiment [5], 100%; in [6], 100%. Moreover, the residual activity in [7] was 87%; in [8] it was 99%; in [9], 93%; in experiment [10], 101%; in [11], 89%; in experiment [12], 118%. For the same molecule, the residual activity was 171% in experiment [13]; 84% in [14]; 35% in experiment [15]; 2% in experiment [16]; 98% in experiment [17]; 109% in experiment [18]. Besides, the results for the residual activity in experiment [19], in experiment [20] and in experiment [21] were 99%, 40% and 87%, respectively.
